What was measured:
[1] = system: actinic keratoses (AKs); conditions: topical therapy, organ transplant recipients (Heppt et al. 2019); cited from earlier work
[2] = system: human T cells; assay: Human T cell proliferation assay (PBMCs, anti-CD3, CellTiter-Glo); type: cell-based; conditions: 50 ng/mL cyclosporine A, anti-CD3, 5 days
Experimental: Cyclosporine A 1 mg/mL stock (CsA—Sigma) was dissolved in DMSO, Rapamycin 5 mg/mL stock (LC Labs) was dissolved in ethanol.
Under sterile conditions, a 96 well flat bottom plate with white opaque walls (Perkin Elmer) was coated with 10 μg per well of purified human anti-CD3 antibody (clone OKT-3; Biolegend) in a volume of 50 μL per well in sterile PBS. The plate was covered in parafilm and incubated overnight at 4° C. Just prior to addition of Peripheral Blood Mononuclear Cells (PBMCs), the antibody solution was removed and discarded using a multichannel pipette. Wells were washed by adding 200 μL sterile PBS to each well and incubating for 2 min. PBS wash solution was removed and discarded following incubation. The wash step was repeated once, for a total of two PBS washes.
20 mL of blood from a consenting healthy volunteer was collected into lithium heparin vacuette containers (Greiner Bio-One). Under sterile conditions, blood from each container was pooled into a single tube and mixed thoroughly with 20 mL FACS buffer (2% FBS in 1×PBS). 15 mL Ficoll-Paque (GE Healthcare) was added to two 50 mL Falcon tubes, before 20 mL of whole blood/FACS buffer mixture was carefully and slowly dispensed on top of the Ficoll layer. Tubes were centrifuged at 800 g for 20 min at room temperature with the brake off. After centrifugation, the resulting PBMC layer between the plasma and Ficoll layers was carefully removed and transferred to a new 50 mL Falcon tube. Tubes were topped up to 45 mL with FACS buffer, then centrifuged at 500 g for 15 min. Supernatant was carefully removed without disturbing cell pellet, then PBMCs from both tubes were pooled. 30 mL of pre-warmed complete RPMI media [RPMI 1640 (Gibco), 10% heat inactivated FBS (Gibco), 1× Penicillin/Streptomycin/L-Glutamine (Gibco), 100 μM 2-Mercaptoethanol (Sigma)] was added to PBMCs, before centrifugation at 500 g for 15 min at room temperature. Supernatant was removed carefully without disturbing cell pellet. PBMCs were resuspended in 1 mL complete RPMI media.
PBMCs were counted manually using a haemocytometer and cell concentration was adjusted to 1.5×10^6 cells/mL with complete RPMI media. 50 μL of cell suspension was added to appropriate wells of the 96 well flat bottom plate with white opaque walls pre-coated in human anti-CD3. The final number of cells per well was 7.5×10^4.
Cells were incubated in a humidified incubator at 37° C. with 5% CO2 for 1 hour before Compound 1 (or vehicle only) was diluted in complete RPMI medium and added to the appropriate wells at the concentration required. The final volume in all wells was 100 μL. Cells were incubated for 5 days in a humidified incubator at 37° C. with 5% CO2.
CellTiter-Glo Luminescent Cell Viability Assay (Promega) was performed to determine the level of metabolically active cells per well based on ATP quantification. CellTiter-Glo Buffer and lyophilised CellTiter-Glo Substrate were equilibrated to room temperature. CellTiter-Glo Substrate was reconstituted with 10 mL CellTiter-Glo Buffer and gently vortexed for 1 minute to create the CellTiter-Glo Reagent. The 96 well plate containing PBMCs was equilibrated to room temperature for 30 min. Once at room temperature, 100 μL of CellTiter-Glo Reagent was dispensed using a multichannel pipette into each well containing 100 μL cells and media. The plate was mixed for 2 min at room temperature on an orbital shaker to induce cell lysis. The plate was then incubated for 10 min at room temperature in the dark to stabilize the luminescence signal. Luminescence signal was recorded using a CLARIOstar Plus plate reader (BMG Labtech).
PBMCs were stimulated with human anti-CD3 antibody and T cells were allowed to proliferate at 37° C. with 5% CO2 in a humidified incubator for 5 days. Proliferation/viability was assessed via a CellTiter-Glo Luminescent Cell Viability Assay and luminescence was read using a CLARIOstar Plus plate reader. […]

Compound | complete clearance rate of AKs [1] | T cell proliferation compared to the vehicle control [2]
O=c1[nH]cc(F)c(=O)[nH]1 [5-fluorouracil] | 11% | –
CC(C)Cn1cnc2c(N)nc3ccccc3c21 [imiquimod] | 27.5-62.1% | –
cyclosporine A [reference compound] | – | inhibited

Reference: patent publication US20230218589A1, “COMPOUND FOR PREVENTION OR TREATMENT OF A SKIN CANCER OR SKIN PRECANCER” (UNIQUEST PTY LTD, priority 2020, published 2023)
